Measurements from PubChem BioAssay AID1963875 (Molecular Pharmacology Branch, DTP, NCI, 2024).
Values joined by “and” are separate entries in the source; they are usually repeats but may differ in a detail not shown here. Equal values may be shown once.

Test system: KRAS-mutant PDC complex spheroid viability
Assay: Anticancer human tumor 186277-243-T-J2-PDC patient-derived colon adenocarcinoma cell line growth inhibition [KRAS2]
Conditions: for viability, T/C: stronger effect = lower value
Outline: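 KRAS-mutant tumor cells were grown as spheroids with HUVEC endothelial cells and human MSCs as stroma. Targeted agents were tested alone and with KRAS pathway inhibitors. Doses started at or near clinical Cmax, or 10 microM, descending half-log.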

[1] = curve of first compound, second compound 0.1 µM
[2] = curve of first compound, second compound 0.316 µM
[3] = curve of first compound, second compound 1 µM
[4] = curve of first compound, second compound 3.16 µM
[5] = curve of first compound, second compound 10 µM
[6] = second compound 0.1 µM, first compound 0.01 µM
[7] = second compound 0.1 µM, first compound 0.0316 µM
[8] = second compound 0.1 µM, first compound 0.1 µM
[9] = second compound 0.1 µM, first compound 0.316 µM
[10] = second compound 0.1 µM, first compound 1 µM
[11] = second compound 0.1 µM, first compound 3.16 µM
[12] = second compound 0.316 µM, first compound 0.01 µM
[13] = second compound 0.316 µM, first compound 0.0316 µM
[14] = second compound 0.316 µM, first compound 0.1 µM
[15] = second compound 0.316 µM, first compound 0.316 µM
[16] = second compound 0.316 µM, first compound 1 µM
[17] = second compound 0.316 µM, first compound 3.16 µM
[18] = second compound 1 µM, first compound 0.01 µM
[19] = second compound 1 µM, first compound 0.0316 µM
[20] = second compound 1 µM, first compound 0.1 µM
[21] = second compound 1 µM, first compound 0.316 µM
[22] = second compound 1 µM, first compound 1 µM
[23] = second compound 1 µM, first compound 3.16 µM
[24] = second compound 3.16 µM, first compound 0.01 µM
[25] = second compound 3.16 µM, first compound 0.0316 µM
[26] = second compound 3.16 µM, first compound 0.1 µM
[27] = second compound 3.16 µM, first compound 0.316 µM
[28] = second compound 3.16 µM, first compound 1 µM
[29] = second compound 3.16 µM, first compound 3.16 µM
[30] = second compound 10 µM, first compound 0.01 µM
[31] = second compound 10 µM, first compound 0.0316 µM
[32] = second compound 10 µM, first compound 0.1 µM
[33] = second compound 10 µM, first compound 0.316 µM
[34] = second compound 10 µM, first compound 1 µM
[35] = second compound 10 µM, first compound 3.16 µM
[36] = second compound 0.1 µM, first compound 10 µM
[37] = second compound 0.316 µM, first compound 10 µM
[38] = second compound 1 µM, first compound 10 µM
[39] = second compound 3.16 µM, first compound 10 µM
[40] = second compound 10 µM, first compound 10 µM
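Wherever viability, T/C is given: viability read after seven days of compound exposure; 100% = DMSO vehicle-treated spheroids so lower means less viable.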

Row | SMILES | IC50 [1] [nM] | IC50 [2] [nM] | IC50 [3] [nM] | IC50 [4] [nM] | IC50 [5] [nM] | viability, T/C [7] [%] | viability, T/C [8] [%] | viability, T/C [9] [%] | viability, T/C [10] [%] | viability, T/C [11] [%] | viability, T/C [13] [%] | viability, T/C [14] [%] | viability, T/C [15] [%] | viability, T/C [16] [%] | viability, T/C [17] [%] | viability, T/C [19] [%] | viability, T/C [20] [%] | viability, T/C [21] [%] | viability, T/C [22] [%] | viability, T/C [23] [%] | also measured
1 | CC(=O)OC12COC1CC(O)C1(C)C(=O)C(O)C3=C(C)C(OC(=O)C(O)C(NC(=O)OC(C)(C)C)c4ccccc4)CC(O)(C(OC(=O)c4ccccc4)C21)C3(C)C (stereo unspecified) + C=CC(=O)N1CCN(c2nc(=O)n(-c3c(C)ccnc3C(C)C)c3nc(-c4c(O)cccc4F)c(F)cc23)C(C)C1 | < 10 | < 10 | < 10 | < 10 | < 10 | 4.61 | 3.18 | 3.25 | 3.42 | 3.34 | 4 | 3.67 | 3.33 | 3.62 | 4 | 4.03 | 3.81 | 3.93 | 4 | 4.32 | viability, T/C [6]: 6.27%; viability, T/C [12]: 6.24%; viability, T/C [18]: 6.82%; viability, T/C [24]: 6.24%; viability, T/C [25]: 4.69%; viability, T/C [26]: 3.98%; viability, T/C [27]: 4.34%; viability, T/C [28]: 4.7%; viability, T/C [29]: 4.34%; viability, T/C [30]: 6.5%; viability, T/C [31]: 5.4%; viability, T/C [32]: 5.36%; viability, T/C [33]: 5.19%; viability, T/C [34]: 5.08%; viability, T/C [35]: 4.88%
2 | CC(=O)OC12COC1CC(O)C1(C)C(=O)C(O)C3=C(C)C(OC(=O)C(O)C(NC(=O)OC(C)(C)C)c4ccccc4)CC(O)(C(OC(=O)c4ccccc4)C21)C3(C)C (stereo unspecified) + CC1OCC2(CCN(c3cnc(Sc4ccnc(N)c4Cl)c(N)n3)CC2)C1N | < 10 | < 10 | < 10 | < 10 | < 10 | 2.69 | 2.31 | 2.12 | 2.12 | 2.53 | 3.64 | 1.94 | 1.7 | 1.93 | 2.14 | 3.42 | 3.58 | 2.84 | 3.01 | 3.67 | viability, T/C [6]: 4.2%; viability, T/C [12]: 2.83%; viability, T/C [18]: 4.63%; viability, T/C [24]: 2.53%; viability, T/C [25]: 1.65%; viability, T/C [26]: 2.04%; viability, T/C [27]: 1.63%; viability, T/C [28]: 1.81%; viability, T/C [29]: 2.09%; viability, T/C [30]: 1.96%; viability, T/C [31]: 1.99%; viability, T/C [32]: 1.61%; viability, T/C [33]: 1.82%; viability, T/C [34]: 1.73%; viability, T/C [35]: 1.74%
3 | O=C(c1cc(Cc2n[nH]c(=O)c3ccccc23)ccc1F)N1CCN(C(=O)C2CC2)CC1 |  |  |  |  |  |  |  |  |  |  |  |  |  |  |  |  |  |  |  |  | viability, T/C (compound 0.0316 µM): 99.2% [middle of 5 runs]; viability, T/C (compound 0.1 µM): 101% [middle of 5 runs]; viability, T/C (compound 0.316 µM): 99.5% [middle of 5 runs]; viability, T/C (compound 10 µM): 40.3% [middle of 5 runs]
4 | Cn1nccc1Nc1nccc(-c2cc3c(s2)C(C)(C)N(CCN2CCOCC2)C3=O)n1 |  |  |  |  |  |  |  |  |  |  |  |  |  |  |  |  |  |  |  |  | viability, T/C (compound 0.0316 µM): 101% [middle of 5 runs]; viability, T/C (compound 0.1 µM): 90.8% [middle of 5 runs]; viability, T/C (compound 1 µM): 16% [middle of 5 runs]; viability, T/C (compound 3.16 µM): 6.29% [middle of 5 runs]; viability, T/C (compound 10 µM): 6.23% [middle of 5 runs]; IC50 (curve of compound): 383 nM [middle of 5 runs]
5 | CC1OCC2(CCN(c3cnc(Sc4ccnc(N)c4Cl)c(N)n3)CC2)C1N (stereo unspecified) |  |  |  |  |  |  |  |  |  |  |  |  |  |  |  |  |  |  |  |  | viability, T/C (compound 0.0316 µM): 107% and 92.4% and 90.5%; viability, T/C (compound 0.1 µM): 102% [middle of 19 runs]; IC50 (compound alone, run of 07/12/2021): > 10000 nM; IC50 (compound alone, run of 07/19/2021): 7400 nM and > 10000 nM; IC50 (compound alone, run of 07/26/2021): > 10000 nM; IC50 (curve of compound): > 10000 nM
6 | CC1(C)CCC(CN2CCN(c3ccc(C(=O)NS(=O)(=O)c4ccc(NCC5CCOCC5)c([N+](=O)[O-])c4)c(Oc4cnc5[nH]ccc5c4)c3)CC2)=C(c2ccc(Cl)cc2)C1 + CNCc1ccccc1-c1csc(C(C)Nc2nc(C)nc3cc(OC)c(OC)cc23)c1 | 2130 | 2260 | 2160 | 90.7 | < 31.6 | 120 | 102 | 107 | 110 | 19.2 | 115 | 117 | 117 | 119 | 22.1 | 126 | 125 | 112 | 116 | 17.2 | viability, T/C [36]: 1.52%; viability, T/C [37]: 1.59%; viability, T/C [38]: 0.88%; viability, T/C [25]: 80.2%; viability, T/C [26]: 44.8%; viability, T/C [27]: 29.2%; viability, T/C [28]: 7.62%; viability, T/C [29]: 0.22%; viability, T/C [39]: 0.13%; viability, T/C [31]: 0.17%; viability, T/C [32]: 0.16%; viability, T/C [33]: 0.14%; viability, T/C [34]: 0.12%; viability, T/C [35]: 0.12%; viability, T/C [40]: 0.2%
7 | CC1COCCN1c1cc(-c2ccnn2C)c2ccnc(-c3ccn[nH]3)c2n1 (stereo unspecified) + CC1OCC2(CCN(c3cnc(Sc4ccnc(N)c4Cl)c(N)n3)CC2)C1N | 20.7 | 21.6 | 21.5 | 20.7 | 15.2 | 30.9 | 4.6 | 3.38 | 2.91 | 3.41 | 29.9 | 4.69 | 2.62 | 2.7 | 3.03 | 18.7 | 3.36 | 2.01 | 2.23 | 2.83 | viability, T/C [6]: 82.6%; viability, T/C [12]: 90.3%; viability, T/C [18]: 113%; viability, T/C [24]: 111%; viability, T/C [25]: 14.6%; viability, T/C [26]: 3.13%; viability, T/C [27]: 1.78%; viability, T/C [28]: 1.9%; viability, T/C [29]: 2.66%; viability, T/C [30]: 72.9%; viability, T/C [31]: 10.5%; viability, T/C [32]: 4.95%; viability, T/C [33]: 4.89%; viability, T/C [34]: 2.16%; viability, T/C [35]: 3.22%
8 | O=C(c1cc(Cc2n[nH]c(=O)c3ccccc23)ccc1F)N1CCN(C(=O)C2CC2)CC1 + COc1cc2nc(C)nc(NC(C)c3cc(N)cc(C(F)(F)F)c3)c2cc1OC1CCOC1 | 8250 | 5900 | 8780 | 4490 | 872 | 107 | 105 | 114 | 116 | 99.1 | 105 | 102 | 107 | 116 | 67.9 | 111 | 104 | 107 | 122 | 88.2 | viability, T/C [36]: 40.1%; viability, T/C [37]: 34.8%; viability, T/C [38]: 45.1%; viability, T/C [25]: 109%; viability, T/C [26]: 98.3%; viability, T/C [27]: 109%; viability, T/C [28]: 110%; viability, T/C [29]: 61%; viability, T/C [39]: 25.1%; viability, T/C [31]: 102%; viability, T/C [32]: 101%; viability, T/C [33]: 81.3%; viability, T/C [34]: 48.4%; viability, T/C [35]: 11.5%; viability, T/C [40]: 10.1%
